Experimental data from ChEMBL document CHEMBL3046781, “Resistance of Helicoverpa assulta (Guenée) (Lepidoptera: Noctuidae) to fenvalerate, phoxim and methomyl in China” (2009).

What was measured:
Format in all cases: functional
Helicoverpa assulta [1] = test: Resistance factor, ratio of LD50 for sixth-instar larvae of Helicoverpa assulta GZ1 to LD50 for sixth-instar larvae of Helicoverpa assulta at 1.8 to 183360 mg/l
Helicoverpa assulta [2] = test: Insecticidal activity against sixth-instar larvae of Helicoverpa assulta HN1 at 1.8 to 183360 mg/l after 48 hr by chi-squared analysis
Helicoverpa assulta [3] = test: Resistance factor, ratio of LD50 for sixth-instar larvae of Helicoverpa assulta YN7 to LD50 for sixth-instar larvae of Helicoverpa assulta at 1.8 to 183360 mg/l
Helicoverpa assulta [4] = test: Insecticidal activity against sixth-instar larvae of Helicoverpa assulta HN2 at 1.8 to 183360 mg/l after 48 hr by chi-squared analysis
Helicoverpa assulta [5] = test: Resistance factor, ratio of LD50 for sixth-instar larvae of Helicoverpa assulta YN8 to LD50 for sixth-instar larvae of Helicoverpa assulta at 1.8 to 183360 mg/l
Helicoverpa assulta [6] = test: Resistance factor, ratio of LD50 for sixth-instar larvae of Helicoverpa assulta YN5 to LD50 for sixth-instar larvae of Helicoverpa assulta at 1.8 to 183360 mg/l
Helicoverpa assulta [7] = test: Insecticidal activity against sixth-instar larvae of Helicoverpa assulta AH2 at 1.8 to 183360 mg/l after 48 hr by chi-squared analysis
Helicoverpa assulta [8] = test: Resistance factor, ratio of LD50 for sixth-instar larvae of Helicoverpa assulta AH2 to LD50 for sixth-instar larvae of Helicoverpa assulta at 1.8 to 183360 mg/l
Helicoverpa assulta [9] = test: Insecticidal activity against sixth-instar larvae of Helicoverpa assulta FJ3 at 1.8 to 183360 mg/l after 48 hr by chi-squared analysis
Helicoverpa assulta [10] = test: Insecticidal activity against sixth-instar larvae of Helicoverpa assulta YN1 at 1.8 to 183360 mg/l after 48 hr by chi-squared analysis
Helicoverpa assulta [11] = test: Insecticidal activity against sixth-instar larvae of Helicoverpa assulta HB1 at 21 to 3390 mg/l after 48 hr by chi-squared analysis
Helicoverpa assulta [12] = test: Resistance factor, ratio of LD50 for sixth-instar larvae of Helicoverpa assulta YN5 to LD50 for sixth-instar larvae of Helicoverpa assulta at 21 to 3390 mg/l
Helicoverpa assulta [13] = test: Insecticidal activity against sixth-instar larvae of Helicoverpa assulta GZ2 at 21 to 3390 mg/l after 48 hr by chi-squared analysis
Helicoverpa assulta [14] = test: Resistance factor, ratio of LD50 for sixth-instar larvae of Helicoverpa assulta FJ3 to LD50 for sixth-instar larvae of Helicoverpa assulta at 21 to 3390 mg/l
Helicoverpa assulta [15] = test: Insecticidal activity against sixth-instar larvae of Helicoverpa assulta SD1 at 21 to 3390 mg/l after 48 hr by chi-squared analysis
Helicoverpa assulta [16] = test: Insecticidal activity against sixth-instar larvae of Helicoverpa assulta HN1 at 21 to 3390 mg/l after 48 hr by chi-squared analysis
Helicoverpa assulta [17] = test: Resistance factor, ratio of LD50 for sixth-instar larvae of Helicoverpa assulta FJ2 to LD50 for sixth-instar larvae of Helicoverpa assulta at 21 to 3390 mg/l
Helicoverpa assulta [18] = test: Insecticidal activity against sixth-instar larvae of Helicoverpa assulta FJ1 at 21 to 3390 mg/l after 48 hr by chi-squared analysis
Helicoverpa assulta [19] = test: Resistance factor, ratio of LD50 for sixth-instar larvae of Helicoverpa assulta GZ4 to LD50 for sixth-instar larvae of Helicoverpa assulta at 21 to 3390 mg/l
Helicoverpa assulta [20] = test: Resistance factor, ratio of LD50 for sixth-instar larvae of Helicoverpa assulta HB1 to LD50 for sixth-instar larvae of Helicoverpa assulta at 21 to 3390 mg/l
Helicoverpa assulta [21] = test: Resistance factor, ratio of LD50 for sixth-instar larvae of Helicoverpa assulta SD2 to LD50 for sixth-instar larvae of Helicoverpa assulta at 21 to 3390 mg/l
Helicoverpa assulta [22] = test: Resistance factor, ratio of LD50 for sixth-instar larvae of Helicoverpa assulta YN7 to LD50 for sixth-instar larvae of Helicoverpa assulta at 21 to 3390 mg/l
Helicoverpa assulta [23] = test: Resistance factor, ratio of LD50 for sixth-instar larvae of Helicoverpa assulta FJ3 to LD50 for sixth-instar larvae of Helicoverpa assulta at 39 to 12630 mg/l
Helicoverpa assulta [24] = test: Insecticidal activity against sixth-instar larvae of Helicoverpa assulta HB1 at 39 to 12630 mg/l after 48 hr by chi-squared analysis
Helicoverpa assulta [25] = test: Insecticidal activity against sixth-instar larvae of Helicoverpa assulta HN1 at 39 to 12630 mg/l after 48 hr by chi-squared analysis
Helicoverpa assulta [26] = test: Insecticidal activity against sixth-instar larvae of Helicoverpa assulta GZ3 at 39 to 12630 mg/l after 48 hr by chi-squared analysis
Helicoverpa assulta [27] = test: Insecticidal activity against sixth-instar larvae of Helicoverpa assulta YN6 at 39 to 12630 mg/l after 48 hr by chi-squared analysis
Helicoverpa assulta [28] = test: Resistance factor, ratio of LD50 for sixth-instar larvae of Helicoverpa assulta GZ5 to LD50 for sixth-instar larvae of Helicoverpa assulta at 39 to 12630 mg/l
Helicoverpa assulta [29] = test: Insecticidal activity against sixth-instar larvae of Helicoverpa assulta HB2 at 39 to 12630 mg/l after 48 hr by chi-squared analysis
Helicoverpa assulta [30] = test: Resistance factor, ratio of LD50 for sixth-instar larvae of Helicoverpa assulta FJ2 to LD50 for sixth-instar larvae of Helicoverpa assulta at 39 to 12630 mg/l
Helicoverpa assulta [31] = test: Insecticidal activity against sixth-instar larvae of Helicoverpa assulta YN7 at 39 to 12630 mg/l after 48 hr by chi-squared analysis
Helicoverpa assulta [32] = test: Resistance factor, ratio of LD50 for sixth-instar larvae of Helicoverpa assulta YN3 to LD50 for sixth-instar larvae of Helicoverpa assulta at 39 to 12630 mg/l
Helicoverpa assulta [33] = test: Resistance factor, ratio of LD50 for sixth-instar larvae of Helicoverpa assulta AH2 to LD50 for sixth-instar larvae of Helicoverpa assulta at 39 to 12630 mg/l
Helicoverpa assulta [34] = test: Resistance factor, ratio of LD50 for sixth-instar larvae of Helicoverpa assulta GZ2 to LD50 for sixth-instar larvae of Helicoverpa assulta at 39 to 12630 mg/l
Helicoverpa assulta [35] = test: Insecticidal activity against sixth-instar larvae of Helicoverpa assulta AH2 at 39 to 12630 mg/l after 48 hr by chi-squared analysis

Work on `CC(C)C(C(=O)OC(C#N)c1cccc(Oc2ccccc2)c1)c1ccc(Cl)cc1` (configuration not stated) [FENVALERATE] yielded a Ratio (Helicoverpa assulta [1]) of 1860, an LD90 (Helicoverpa assulta [2]) of 23.1 µg/g and an LD50 (Helicoverpa assulta [2]; Helicoverpa assulta, HN1, 48 h) of 10.5 mg/kg. For the same molecule, the Ratio (Helicoverpa assulta [3]) was 1537, the LD90 (Helicoverpa assulta [4]) was 7.63 µg/g and the LD50 (Helicoverpa assulta [4]; Helicoverpa assulta, HN2, 48 h) was 1.17 mg/kg. It also gave a Ratio (Helicoverpa assulta [5]) of 17622, a Ratio (Helicoverpa assulta [6]) of 8816 and an LD90 (Helicoverpa assulta [7]) of 259 µg/g. The LD50 (Helicoverpa assulta [7]; Helicoverpa assulta, AH2, 48 h) was 67.3 mg/kg, the Ratio (Helicoverpa assulta [8]) was 415 and the LD90 (Helicoverpa assulta [9]) was 3.39 µg/g. The LD50 (Helicoverpa assulta [9]; Helicoverpa assulta, FJ3, 48 h) was 1.47 mg/kg, the LD90 (Helicoverpa assulta [10]) was 4059 µg/g and the LD50 (Helicoverpa assulta [10]; Helicoverpa assulta, YN1, 48 h) was 1360 mg/kg.
Work on `CNC(=O)ON=C(C)SC` [METHOMYL] yielded an LD90 (Helicoverpa assulta [11]) of 27.6 µg/g, an LD50 (Helicoverpa assulta [11]; Helicoverpa assulta, HB1, 48 h) of 12.2 mg/kg and a Ratio (Helicoverpa assulta [12]) of 9.87. The LD90 (Helicoverpa assulta [13]) was 52.6 µg/g, the LD50 (Helicoverpa assulta [13]; Helicoverpa assulta, GZ2, 48 h) was 20.1 mg/kg and the Ratio (Helicoverpa assulta [14]) was 16.3. It also gave an LD90 (Helicoverpa assulta [15]) of 19.5 µg/g, an LD50 (Helicoverpa assulta [15]; Helicoverpa assulta, SD1, 48 h) of 5.68 mg/kg and an LD90 (Helicoverpa assulta [16]) of 34 µg/g. It also gave an LD50 (Helicoverpa assulta [16]; Helicoverpa assulta, HN1, 48 h) of 6.48 mg/kg, a Ratio (Helicoverpa assulta [17]) of 19.9 and an LD90 (Helicoverpa assulta [18]) of 67.8 µg/g. It also gave an LD50 (Helicoverpa assulta [18]; Helicoverpa assulta, FJ1, 48 h) of 21.1 mg/kg, a Ratio (Helicoverpa assulta [19]) of 11.5 and a Ratio (Helicoverpa assulta [20]) of 8.45. It also gave a Ratio (Helicoverpa assulta [21]) of 6.17 and a Ratio (Helicoverpa assulta [22]) of 27.
Molecule `CCOP(=S)(OCC)O/N=C(\C#N)c1ccccc1` [PHOXIM] has a Ratio (Helicoverpa assulta [23]) of 8.15, an LD90 (Helicoverpa assulta [24]) of 18.8 µg/g and an LD50 (Helicoverpa assulta [24]; Helicoverpa assulta, HB1, 48 h) of 8.16 mg/kg. For the same molecule, the LD90 (Helicoverpa assulta [25]) was 23.1 µg/g, the LD50 (Helicoverpa assulta [25]; Helicoverpa assulta, HN1, 48 h) was 10.5 mg/kg and the LD90 (Helicoverpa assulta [26]) was 65.3 µg/g. The LD50 (Helicoverpa assulta [26]; Helicoverpa assulta, GZ3, 48 h) was 20.9 mg/kg, the LD90 (Helicoverpa assulta [27]) was 72 µg/g and the LD50 (Helicoverpa assulta [27]; Helicoverpa assulta, YN6, 48 h) was 21.3 mg/kg. For the same molecule, the Ratio (Helicoverpa assulta [28]) was 7.1, the LD90 (Helicoverpa assulta [29]) was 37.4 µg/g and the LD50 (Helicoverpa assulta [29]; Helicoverpa assulta, HB2, 48 h) was 11.8 mg/kg. It also gave a Ratio (Helicoverpa assulta [30]) of 9.41, an LD90 (Helicoverpa assulta [31]) of 131 µg/g and an LD50 (Helicoverpa assulta [31]; Helicoverpa assulta, YN7, 48 h) of 41.8 mg/kg. The Ratio (Helicoverpa assulta [32]) was 12.5, the Ratio (Helicoverpa assulta [33]) was 7.13 and the Ratio (Helicoverpa assulta [34]) was 10.8. The LD90 (Helicoverpa assulta [35]) was 33.5 µg/g and the LD50 (Helicoverpa assulta [35]; Helicoverpa assulta, AH2, 48 h) was 16.7 mg/kg.
